Several values for one entry are separate records, joined by “and”; a condition that tells them apart may be missing. Identical values can stand only once.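 Tested at 5 concentrations; 48 h exposure; 96-well plates; endpoints linearly interpolated, else capped at highest concentration. TGI: concentration producing complete growth inhibition.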
Key:
Assay in all cases: NCI-60 cell line screen, 48 h
A549 NSCLC = test system: A549 NSCLC
BT-549 breast = test system: BT-549 breast
HOP-92 NSCLC = test system: HOP-92 NSCLC
M14 melanoma = test system: M14 melanoma
MOLT-4 leukemia = test system: MOLT-4 leukemia
RXF 393 renal = test system: RXF 393 renal
SF-539 CNS = test system: SF-539 CNS
SNB-19 CNS = test system: SNB-19 CNS
UACC-62 melanoma = test system: UACC-62 melanoma
UO-31 renal = test system: UO-31 renal
IGROV1 ovarian = test system: IGROV1 ovarian

Structure (SMILES)	TGI (A549 NSCLC)	TGI (BT-549 breast)	TGI (HOP-92 NSCLC)	TGI (M14 melanoma)	TGI (MOLT-4 leukemia)	TGI (RXF 393 renal)	TGI (SF-539 CNS) [µM]	TGI (SNB-19 CNS)	TGI (UACC-62 melanoma)	TGI (UO-31 renal)	TGI (IGROV1 ovarian)
CO[C@H]1O[C@@H]2CO[C@@H](c3ccccc3)O[C@H]2C[C@]12CCC/C=C\CO2	> 75 µM	23.9 µM	28.4 µM	41.2 µM	32 µM	28.3 µM	29.1	> 75 µM	> 75 µM	25.2 µM	
CC/C(Cl)=N\OC(=O)Nc1ccc(C#N)cc1	35.7 µM	28.3 µM	8.54 µM	24.8 µM	11 µM	21.4 µM	30.5	> 100 µM	28.4 µM	31 µM	30.6 µM
CC(C)[Si]1(C(C)C)OCC2OC(n3ccc(=O)[nH]c3=O)C(O)(CO)C2O[Si](C(C)C)(C(C)C)O1 (centres undefined)	27.9 µM	30.7 µM	22.6 µM	34.8 µM	69.1 µM	30.4 µM	32.2	28.9 µM	29.2 µM	22.2 µM	23.9 µM
CC1OC(=O)c2ccccc2NC1=O (centres undefined)	> 100 µM	> 100 µM	> 100 µM	> 100 µM	> 100 µM	> 100 µM	> 100	> 100 µM	> 100 µM	> 100 µM	> 100 µM
N#Cc1c(-c2ccc(Cl)cc2)c(C#N)c(=O)n(NS(=O)(=O)c2ccccc2)c1-c1ccccc1	> 25 µM	> 25 µM	> 25 µM	> 25 µM	> 25 µM	> 25 µM	> 25	> 25 µM	> 25 µM		
O/N=C\c1cc(O)c(O)c(/C=N/O)c1	> 100 µM	> 100 µM	> 100 µM	> 100 µM	> 100 µM	> 100 µM	> 100	> 100 µM	> 100 µM	> 100 µM	> 100 µM
Cc1cc2c(-c3ccccc3)cc(=O)[nH]c2cc1N	> 100 µM	> 100 µM	> 100 µM	> 100 µM	> 100 µM	> 100 µM	> 100	> 100 µM	> 100 µM	> 100 µM	> 100 µM
N#Cc1c(C#N)c(SSc2c(C#N)c(C#N)c(N)n2-c2ccccc2)n(-c2ccccc2)c1N	> 57.2 µM	30.7 µM	3.71 µM		> 100 µM	44.7 µM	> 100	> 63.1 µM	46.4 µM	3.08 µM	> 60.5 µM
Cc1nc2c(-c3ccccc3)[nH]c(C)c2c(=O)o1	> 100 µM	> 100 µM	> 100 µM	> 100 µM	> 100 µM	> 100 µM	> 100	> 100 µM	> 100 µM	> 100 µM	> 100 µM
CC(Cc1ccc(O)c(O)c1)C(C)Cc1ccc(O)c(O)c1 (centres undefined)	> 88.4 µM	26.8 µM	12.2 µM	34 µM	> 62.5 µM	31.7 µM	33.9	50.9 µM	32.8 µM	23.1 µM	33.6 µM
O=C1OC(CN2CCN(c3ccccc3)CC2)CN1C(=S)Nc1ccccc1 (centres undefined)	> 100 µM	> 100 µM	> 100 µM	> 100 µM	> 100 µM	> 100 µM	> 100	> 100 µM	> 100 µM	> 100 µM	> 100 µM
Cn1c(=O)n(CC(Br)CBr)c(=O)n(CC(Br)CBr)c1=O (centres undefined)	> 100 µM	> 100 µM	> 100 µM	73.6 µM	87.1 µM	> 100 µM	61.1	> 100 µM	72.8 µM	97.6 µM	> 100 µM
COC(=O)C1=C(C)NC(C)=C([N+](=O)[O-])C1c1cccc(NO)c1 (centres undefined)	> 89.6 µM	16.4 µM	28 µM	12.3 µM	> 26 µM	> 85.4 µM	37	> 100 µM	> 31.6 µM	24.1 µM	22.9 µM
C=CCn1c(=O)c(C)cn(/C(=C/C(=O)OCC)C(=O)OCC)c1=O	87.5 µM	30.2 µM	17.2 µM	28.1 µM	21.2 µM	28.2 µM	63.2	> 86.1 µM	34.4 µM	29.1 µM	31.4 µM
COC(=O)C1=C(O)C(C(=O)OC)[C@]2(O)[C@H](C(=O)OC)[C@H]1C[C@@H](c1ccc(OC)cc1)[C@H]2C(=O)OC (some centres undefined)	62.8 µM	> 100 µM	> 100 µM	66.6 µM	68.1 µM	42 µM	> 100	79.8 µM	25.8 µM	34.9 µM	> 100 µM
CC1(C)CCc2c(c(N=Nc3ccccc3)c3ccccc3c2O)O1	> 100 µM	> 100 µM	63.9 µM	88.8 µM	> 100 µM	33.6 µM	69.6	> 100 µM	> 100 µM	60.3 µM	> 100 µM
Cc1ccc(C2=Nc3c(N)nc(N)nc3NC(c3ccccc3)C2)cc1 (centres undefined)	26.3 µM and 23.6 µM	22 µM and 23.6 µM	24.3 µM and 24.9 µM	20.8 µM and 21.8 µM	28.3 µM and 97.6 µM	25.2 µM and 21.3 µM	25.3	27 µM and 32.9 µM	22.7 µM and 26 µM	25.2 µM and 25.6 µM	21.2 µM and 21.6 µM
COC/C=C\[C@@]1(O)CCCC[C@@H]1CC(OC)OC	> 100 µM	> 100 µM	> 100 µM	> 100 µM	31.4 µM	> 92.1 µM	> 100	> 100 µM		> 96.6 µM	> 55.6 µM

Structure (SMILES)	TGI (A549 NSCLC)	TGI (BT-549 breast)	TGI (HOP-92 NSCLC)	TGI (M14 melanoma)	TGI (MOLT-4 leukemia)	TGI (RXF 393 renal)	TGI (SF-539 CNS) [µM]	TGI (SNB-19 CNS)	TGI (UACC-62 melanoma)	TGI (UO-31 renal)	TGI (IGROV1 ovarian)
NNC(=O)c1n[nH]nc1SSc1n[nH]nc1C(=O)NN	> 100 µM	> 100 µM	> 100 µM	> 100 µM	> 100 µM	> 100 µM	> 100	> 100 µM	> 100 µM	> 100 µM	> 100 µM
CCOC(=O)c1nc2cc(C(F)(F)F)ccc2nc1Nc1ccc(Cl)c(Cl)c1	> 100 µM	> 100 µM	94.1 µM	> 100 µM	> 100 µM	> 100 µM	> 100	> 100 µM	> 100 µM	> 100 µM	> 100 µM
Fc1ccc(C(OCCN2CCC3CCC(C2)N3Cc2cc3ccccc3[nH]2)c2ccc(F)cc2)cc1 (centres undefined)	4.26 µM	5.08 µM	3.62 µM	2.94 µM	4.03 µM	3.12 µM	3.01	7.55 µM	4.46 µM	3.42 µM	2.79 µM
Nc1c(C(=O)c2ccccc2)[nH]c(NCc2ccccc2)c1C(=S)Nc1ccccc1	> 100 µM	> 100 µM	> 100 µM	> 100 µM	> 100 µM	> 100 µM	> 100	> 100 µM	> 100 µM	> 100 µM	> 100 µM
Clc1nc2c(-c3cccs3)ncnc2n1Cc1ccccc1	> 100 µM	> 81.8 µM	62 µM	> 100 µM	> 100 µM	51.2 µM	> 100	> 78.3 µM	> 100 µM	1.09 µM	> 100 µM
COc1ccc(C)cc1NC(=S)N/N=C/c1ccc(SC)cc1	> 100 µM	> 100 µM	> 100 µM	73.9 µM	> 100 µM	> 100 µM	89.9	> 100 µM	> 100 µM	> 100 µM	> 100 µM
CC(C)(C)OC(=O)NC(Cc1ccc([N+](=O)[O-])cc1)C(=O)NC(CCCCNC(=O)OCc1ccccc1)C(=O)ON1C(=O)CCC1=O (centres undefined)	> 100 µM	> 100 µM	> 100 µM	> 100 µM	> 100 µM	> 100 µM	> 100	> 100 µM	> 100 µM	> 100 µM	> 100 µM
CN1C[C@@H]2CCCN2P1Oc1cccc2cccnc12 (some centres undefined)	> 100 µM	> 100 µM	> 100 µM	> 100 µM	58.1 µM	> 100 µM	> 100	> 100 µM	> 100 µM	> 100 µM	> 100 µM
C[C@@H]1CCC2[C@@H](C)C(=O)O[C@@H]3C4C[C@@H]1[C@@]23OO[C@@]4(C)O (some centres undefined)	> 100 µM	> 100 µM	> 100 µM	> 100 µM	> 100 µM	> 100 µM	> 100	> 100 µM	> 100 µM	94 µM	> 100 µM
Cc1[nH]c2ccccc2c1C=Nc1ccc(Oc2ccccc2)cc1	32.3 µM	35.5 µM	31.2 µM	30.3 µM	35.7 µM	31.7 µM	33	33.1 µM	32 µM	24.4 µM	28.3 µM
COC(=O)CCCCC/C(=C\C(=O)C(Cl)(Cl)Cl)OC	> 100 µM	> 100 µM	57.1 µM	> 100 µM	60.1 µM	41.1 µM	44.4	> 100 µM	> 100 µM	> 100 µM	32.2 µM
C=C(Cl)C(Cl)(CBr)CCC(Cl)C(C)(C)Cl (centres undefined)	12.7 µM	20.1 µM	2.52 µM	35.6 µM	53 µM	10.9 µM	1.35	7 µM		5.15 µM	26.3 µM
N#Cc1c(NC(=S)NCc2ccccc2)sc2c1CCN(N1CCc3c(sc(NC(=S)NCc4ccccc4)c3C#N)C1)C2	> 100 µM	> 100 µM	> 100 µM	> 100 µM	> 100 µM	> 100 µM	> 100	> 100 µM	> 100 µM	> 100 µM	> 100 µM
O=C(/C=C/c1ccc(O)c(O)c1)OCCOC(=O)/C=C/c1ccc(O)c(O)c1	> 100 µM	> 100 µM	> 100 µM	28.5 µM	44.9 µM	51.9 µM	52.6	> 100 µM	35.1 µM	47.5 µM	> 100 µM
Cc1cc(=Nc2ccc3c(c2)c(N)cc(C)[n+]3C)nc(N)n1C	> 100 µM	> 100 µM	> 100 µM	> 100 µM	> 100 µM	> 100 µM	> 100	> 100 µM	> 100 µM	> 100 µM	> 100 µM
NC(=O)N(O)c1cccc(Br)c1	> 100 µM	> 100 µM	> 100 µM	> 100 µM	> 100 µM	> 100 µM	> 100	> 100 µM	> 100 µM	> 100 µM	> 100 µM
CN1CCN(c2ccc3[nH]c(C4=C(O)c5nc(CO)n(C)c5C(=O)C4=O)nc3n2)CC1	> 100 µM	> 100 µM	> 100 µM	> 100 µM	> 100 µM	91.4 µM	> 100	> 100 µM	> 100 µM	> 100 µM	> 100 µM

From PubChem BioAssay (NCI)
